These are literature values, as cited in patent US20150283090A1, “USE OF SILICON OXIDE-BASED MATERIAL FOR THE MODIFIED RELEASE OF BIOLOGICALLY ACTIVE AGENTS” (MERCK PATENT GMBH, priority 2012, published 2015).

Each structure is given as a SMILES string. Like-named read-outs stand apart in the source and are kept apart here.

For data set [1] the following is noted: C1 silylation of MCM-41.
The conditions of data set [2]: MCM-48 and LP-la3d, pore sizes 3.6 and 5.7 nm, modified with C8 and C18 hydrocarbon chains.
For data set [3] the following is noted: silica hybrid gels with methyl or propyl functionalization.

Take `C[C@H](CS)C(=O)N1CCC[C@H]1C(=O)O` [Captopril]: in data set [1], the release rate entry is “decrease of release rate of Captopril with increasing degree of C1 silylation”.

As to `CC(C)Cc1ccc(C(C)C(=O)O)cc1` (centres unmarked) [ibuprofen], the delivery rates entry in data set [2] is given as “decrease of delivery rates when the surface of the material is modified”. Turning to `OCCN(CCO)c1nc(N2CCCCC2)c2nc(N(CCO)CCO)nc(N3CCCCC3)c2n1` [persantin], the drug release entry in data set [3] is “inhibition of drug release with an increasing number of methyl or propyl functionalization”.

On to `CN[C@H](CC(C)C)C(=O)N[C@H]1C(=O)N[C@@H](CC(N)=O)C(=O)N[C@H]2C(=O)N[C@H]3C(=O)N[C@H](C(=O)N[C@H](C(=O)O)c4cc(O)cc(O)c4-c4cc3ccc4O)[C@H](O)c3ccc(c(Cl)c3)Oc3cc2cc(c3O[C@@H]2O[C@H](CO)[C@@H](O)[C@H](O)[C@H]2O[C@H]2C[C@](C)(N)[C@H](O)[C@H](C)O2)Oc2ccc(cc2Cl)[C@H]1O` [vancomycin], for which the “release kinetics of vancomycin from SBA-15” value is, setting by setting: (after functionalizing with octylmethoxysilane (C8)) 0.068 min-½; (non-functionalized material) 0.890 min-½.
